On the set-up of data set [1]: method as in Laham & Sinclair, 1969. To be noted: rats; ref Laham & Sinclair, 1969; cited from earlier work.
For data set [2] the following is noted: ref Ashby & Cook, 1974; cited from earlier work.
Data set [3] relates to BHK 21/C13 cells. Kind of data set: cell-transformation assay of Styles. The following applies: presence of S-9 mix, 2 separate occasions (Fig. 2).
Data set [4] has as its system Salmonella strains TA 1535, TA 1538, TA 98 and TA 100. Kind of data set: Salmonella reverse-mutation assay of Ames. The following applies: for response in the Ames assay (Fig. 1): strain TA 1538, presence of Aroclor 1254-induced rat liver S-9 mix. In general terms: The Ames test uses bacterial strains that need an amino acid and regain growth without it when mutated back.

Data set [5] can be described thus: chemical stability to heat, light and air (monitored by TLC and m.p.). In kind it is physicochemical. The following applies: for stability to heat and light: monitored by TLC and m.p.; for behaviour of the solid in air and light: noted at preparation.
Data set [6] concerns BHK 21/C13 cells. Nature of the data set: parallel cell-toxicity assay (% survivors) of the transformation assay. In kind it is cell-based.

The structures appear in SMILES notation.

Turning to `Nc1ccc(-c2ccc([N+](=O)[O-])cc2)cc1` [4-nitro-4'-aminobiphenyl], the bladder cancer induction result in data set [1] was “induces bladder cancer”.

In the case of `Nc1ccc2c(c1)sc1ccccc12` [VII, 3-amino-dibenzothiophene], the carcinogenicity entry in data set [2] was “carcinogenicity”.

Take `Nc1ccc(-c2ccc(N)cc2)cc1` [XI, benzidine]: in data set [3], the “response in the cell-transformation assay” value is listed as “positive”. The “response in the Ames assay” value in data set [4] (4 Salmonella strains, 3 separate occasions, presence and absence of Aroclor 1254-induced rat liver S-9 mix) is reported as “positive on each occasion”. For the same molecule, the “response in the Ames assay (Fig. 1)” value in data set [4] is on record as “positive response”. In data set [1], the bladder cancer induction result was “induces bladder cancer”.

As for `CC(=O)Nc1ccc(-c2ccc(N)s2)cc1.Cl` [XIII, 5-p-acetamidophenyl-2-thiophenamine hydrochloride], in data set [5], the “stability to heat and light” value was “unstable to heat and light”; the “behaviour of the solid in air and light” value was “sensitive to light and air”.

Regarding `Cl.Nc1ccc(-c2ccccc2)s1` [XIV, 5-phenyl-2-thiophenamine hydrochloride], in data set [5], the “stability to heat and light” value was “unstable to heat and light”; the “behaviour of the solid in air and light” value was “discolours quickly in air and light”.

With `CC(=O)Nc1ccc(-c2ccc(NC(C)=O)s2)cc1` [XV, N-(5-p-acetamido-phenylthiophen-2-yl)acetamide], the “cytotoxicity (toxicity curve, % survivors)” value in data set [6] is “toxicity curve similar to that of benzidine”. Moreover, the “stability to heat and light” value in data set [5] was “stable”. In addition, the “response in the Ames assay (Fig. 1)” value in data set [4] is “positive response”.

`CC(=O)Nc1ccc(-c2ccccc2)s1` [XVI, N-(5-phenylthiophen-2-yl)-acetamide]: in data set [6], the “cytotoxicity (toxicity curve, % survivors)” value is recorded as “toxicity curve similar to that of benzidine”. The “stability to heat and light” value in data set [5] is listed as “stable”.

Values taken from publication PMC2009770, “Thiophene analogues of the carcinogens benzidine and 4-aminobiphenyl: evaluation in vitro” (British Journal of Cancer, 1978).
